The text below walks through data of patent US20220265845A1, “AMINOTHIOLESTER COMPOUNDS AND USES THEREOF” (ADVANCED BIODESIGN, priority 2019, published 2022).

The subject of one data set is HL-60. Put plainly: Cell viability assay (Resazurin), cytotoxicity in HL60 cells. Type of data set: cell-based. To be noted: Homo sapiens, HL-60, read-out: IC50 at 48 h, 48 hours of incubation. How it is done:
Cell lines. Leukemic cell line, HL-60 (derived from a person with AML-M2), was used for determination of drug efficacy. Cells were obtained from the European Collection of Cell Cultures (ECACC). All cells were cultivated in appropriate media according to supplier recommendations.
Cell Viability assay, 96-well format. Cells were seeded into 96-well cell culture plates at concentrations required to ensure approximately 80% confluence in control (untreated cells) at the end of experiment (0.5×10^4-5×10^4 cell/well).
The sensitivity towards compounds according to the invention was determined using different concentrations of each compound ranging from 0.5 to 100 μM (0.5, 1, 2, 5, 10, 15, 20, 25, 30, 40, 50, 100 μM). Following 48 hours of incubation at 37° C. in a humidified atmosphere containing 5% CO2, the growth-inhibitory effect of compounds was analyzed using Resazurin, according to manufactures instructions.
To ensure good data quality and to minimize impact of pipetting errors, each compounds concentration was assessed based on mean fluorescence intensity from 8 separate wells. Compounds response were quantified by the half maximal inhibitory concentration (IC50) for each particular cell line, and determined by non-linear regression analysis of log-dose/response curves.
Statistical Analysis. Values were expressed as mean±SD or frequencies and proportions. Cell viability curves were determined using four parameter regression line. Differences between groups were determined by unpaired t test, Chi-square, Fisher's exact test or ANOVA, where appropriate. P<0.05 was considered statistically significant. Analysis was performed using GraphPad prism version 5.0 (GraphPad software, San Diego Calif. USA).
In general terms: The colour change of resazurin is a common sign of viable cells or microbes.

Another data set concerns Raji cells. The data set is described as follows: Cell cytotoxicity by Rituximab-compound 9 (Alamar Blue). The conditions noted are these: treatment of 50 μg/ml.

Description for Raji cells: 50 000 viable Raji cells were plated in triplicate. […] The cells were incubated for 48 h at which time 20 μl of Alamar Blue (Thermo Fisher Scientific) was added to each well. The plates were incubated for an additional four hours and the fluorescence intensity read on a plate reader using excitation wavelength of 540 nm and an emission wavelength of 620 nm.

Consider `CCOCCN(C)C(C)(C)C#CC(=O)SC` [Example 1, S-methyl 4-[2-ethoxyethyl(methyl)amino]-4-methyl-pent-2-ynethioate], for which, in the data set with HL-60, the IC50 (as a rule, the concentration needed to halve the response being measured) came out at 4.98 µM.
For the compound `C=CCOCCN(C)C(C)(C)C#CC(=O)SC` [Example 2, S-methyl 4-[2-allyloxyethyl(methyl)amino]-4-methyl-pent-2-ynethioate], in the data set on HL-60, the IC50 came out at 6.5 µM.
Still for that read-out and setting: for `CSC(=O)C#CC(C)(C)N(C)CCOCc1cccc(C)c1` [Example 4, S-methyl 4-methyl-4-[methyl-[2-(m-tolylmethoxy)ethyl]amino]pent-2-ynethioate] the value was 5.62 µM.
The same measure, in the same setting: for `COc1ccc(COCCN(C)C(C)(C)C#CC(=O)SC)cc1` [Example 6, S-methyl 4-[2-[(4-methoxyphenyl)methoxy]ethyl-methyl-amino]-4-methyl-pent-2-ynethioate] the value was 6.48 µM; for `COc1ccc(COCCN(C)C(C)(C)C#CC(=O)SC)cc1OC` [Example 7, S-methyl 4-[2-[(3,4-dimethoxyphenyl)methoxy]ethyl-methyl-amino]-4-methyl-pent-2-ynethioate], 6.08 µM.
Same read-out and setting: to `CSC(=O)C#CC(C)(C)N(C)CCOCc1cccc(Cl)c1` [Example 8, S-methyl 4-[2-[(3-chlorophenyl)methoxy]ethyl-methyl-amino]-4-methyl-pent-2-ynethioate] belongs 7.07 µM; to `CSC(=O)C#CC(C)(C)N(C)CCOCc1cccc(F)c1` [Example 9, S-methyl 4-[2-[(3-fluorophenyl)methoxy]ethyl-methyl-amino]-4-methyl-pent-2-ynethioate], 6.65 µM.
On to `CSC(=O)C#CC(C)(C)N(C)CCOCc1ccccn1` [Example 10, S-methyl 4-methyl-4-[methyl-[2-(2-pyridylmethoxy)ethyl]amino]pent-2-ynethioate], for which the IC50 in the data set on HL-60 turned out to be 5.62 µM.
Turning to `CSC(=O)C#CC(C)(C)N(C)CCOCc1cccnc1` [Example 11, S-methyl 4-methyl-4-[methyl-[2-(3-pyridylmethoxy)ethyl]amino]pent-2-ynethioate], the IC50 in the data set with HL-60 was 6.56 µM.
On the same count and under the same terms, for `CSC(=O)C#CC(C)(C)N(C)CCOCc1ccncc1` [Example 12, S-methyl 4-methyl-4-[methyl-[2-(4-pyridylmethoxy)ethyl]amino]pent-2-ynethioate] the value was 5.68 µM.
The same measure, in the same setting: to `COC(=O)C#CC(C)(C)N(C)C` [Example 13, methyl 4-(dimethylamino)-4-methyl-pent-2-ynoate] belongs 42.7 µM.
On the same count and under the same terms, to `CCOC(=O)C#CC(C)(C)N(C)C` [Example 14, ethyl 4-(dimethylamino)-4-methyl-pent-2-ynoate] belongs 40 µM; to `CN(C)C(C)(C)C#CC(=O)SCC(=O)OC(C)(C)C` [Example 15, tert-butyl 2-((4-(dimethylamino)-4-methylpent-2-ynoyl)thio)acetate], 25 µM; to `CN(C)C(C)(C)C#CC(=O)SCC(=O)O` [Example 16, 2-((4-(dimethylamino)-4-methylpent-2-ynoyl)thio)acetic acid], 22.5 µM.
As for `CSC(=O)C#CC(C)(C)N(C)CCCCOCc1ccccc1` [Example 17, S-methyl 4-((4-(benzyloxy)butyl)(methyl)amino)-4-methylpent-2-ynethioate], the IC50 in the data set with HL-60 is 11.3 µM.
Same read-out and setting: for `CSC(=O)C#CC(C)(C)N(C)CCO` [Example 18, S-methyl 4-((2-hydroxyethyl)(methyl)amino)-4-methylpent-2-ynethioate] the value was 6.75 µM; for `CSC(=O)C#CC(C)(C)N(C)CCOCc1ccc2ccccc2c1` [Example 19, S-methyl 4-methyl-4-[methyl-[2-(2-naphthylmethoxy)ethyl]amino]pent-2-ynethioate], 11.3 µM.
On the same count and under the same terms, for `CSC(=O)C#CC(C)(C)N(C)CCOCC1=C(C)CCCC1(C)C` [Example 20, S-methyl 4-methyl-4-[methyl-[2-[(2,6,6-trimethylcyclohexen-1-yl)methoxy]ethyl]amino]pent-2-ynethioate] the value was 13.6 µM; for `CSC(=O)C#CC(C)(C)N(C)CCOC(C)=O` [Example 21, 2-[(1,1-dimethyl-4-methylsulfanyl-4-oxo-but-2-ynyl)-methylamino]ethyl acetate], 12.7 µM.
As for `COc1ccc(C(=O)OCCN(C)C(C)(C)C#CC(=O)SC)cc1OC` [Example 22, 2-[(1,1-dimethyl-4-methylsulfanyl-4-oxo-but-2-ynyl)-methylamino]ethyl-3,4-dimethoxybenzoate], the IC50 in the data set with HL-60 was determined as 15.3 µM.
Take `CSC(=O)C#CC(C)(C)N(C)CCOC(=O)N(C)CCN(C)C` [Example 23, S-methyl 2,5,10,11,11-pentamethyl-6-oxo-7-oxa-2,5,10-triazatetradec-12-yne-14-thioate]: the IC50 with HL-60 is 10.6 µM.
Same read-out and setting: to `COC[C@@H]1CCCN1C(C)(C)C#CC(=O)SC` [Example 24, (S)—S-methyl 4-(2-(methoxymethyl)pyrrolidin-1-yl)-4-methylpent-2-ynethioate] belongs 20.5 µM; to `CO[C@@H]1CCN(C(C)(C)C#CC(=O)SC)C1` [Example 25, S-methyl 4-[(3R)-3-methoxypyrrolidin-1-yl]-4-methyl-pent-2-ynethioate], 16.5 µM.
In the case of `CSC(=O)C#CC(C)(C)N(C)[C@@H]1CCC[C@H]1OCc1ccccc1` [Example 26, S-methyl 4-(((1R,2R)-2-(benzyloxy)cyclopentyl)(methyl)amino)-4-methylpent-2-ynethioate], in the data set with HL-60, the IC50 turned out to be 17.5 µM.
As to `CSC(=O)C#CC(C)(C)N1CCC[C@H]1COCc1ccccc1` [Example 27, (S)—S-methyl 4-(2-((benzyloxy)methyl)pyrrolidin-1-yl)-4-methylpent-2-ynethioate], the IC50 in the data set on HL-60 was found to be 10.4 µM.
The same measure, in the same setting: to `CSC(=O)C#CC(C)(C)N1CC[C@@H](OCc2ccccc2)C1` [Example 28, (R)—S-methyl 4-(3-(benzyloxy)pyrrolidin-1-yl)-4-methylpent-2-ynethioate] belongs 11.8 µM.
Take “Rituximab: Antibody rituximab (Roche), target CD20 [reference compound]”: in the data set on Raji cells, the “Mean viability of Raji cells in percentage comparing to the non-treated cells” value is 85.50%±2.268%.
